Data from patent publication US9580726B2, “Tomato plants comprising transgenic event Bs2-X5” (priority 2013, dated 2017).
Where a name gives a salt, the structure may show the parent alone. Read-outs that look alike come from different tables or passages of the source.

Experiments:
[1] = tested on: Xanthomonas bacterial isolates; format: cell-based, Xanthomonas perforans; settings: 200 μg/ml, 3 days
Experimental: The bacterial isolates were also tested for sensitivity to the bactericides, streptomycin and copper using established procedures. All strains were tested for growth on media with either streptomycin sulfate (200 μg/ml) or copper sulfate (pentahydrate) 200 μg/ml (0.8 mM)) after 3 days, [38].

[2] = tested on: bacterial spot disease on tomato; settings: cited from earlier work
[3] = Collier, zone III, Florida 47, 20 strains isolated (r19)
[4] = Collier, zone III, Grape, 18 strains isolated (r22)
[5] = Collier, zone III, Grape, 20 strains isolated (r21)
[6] = Collier, zone III, Large Fruit, 19 strains isolated (r23)
[7] = Collier, zone III, Roma, 20 strains isolated (r20)
[8] = Decatur, GA, zone V, Large Fruit, 19 strains isolated (r39)
[9] = Decatur, GA, zone V, Large Fruit, 20 strains isolated (r41)
[10] = Decatur, GA, zone V, Large Fruit, 20 strains isolated (r43)
[11] = Gadsden, zone V, Large Fruit, 19 strains isolated (r37)
[12] = Gadsden, zone V, Large Fruit, 20 strains isolated (r35)
[13] = Manatee, zone IV, Large Fruit, 20 strains isolated (r25)
[14] = Manatee, zone IV, Large Fruit, 20 strains isolated (r27)
[15] = Manatee, zone IV, Large Fruit, 20 strains isolated (r29)
[16] = Manatee, zone IV, Large Fruit, 20 strains isolated (r31)
[17] = Manatee, zone IV, Large Fruit, 20 strains isolated (r33)
[18] = Miami Dade, zone I, Large Fruit, 13 strains isolated (r13)
[19] = Miami Dade, zone I, Large Fruit, 15 strains isolated (r9)
[20] = Miami Dade, zone I, Large Fruit, 20 strains isolated (r11)
[21] = Miami Dade, zone I, Plum, 20 strains isolated (r15)
[22] = Palm Beach, zone II, Heirloom varieties, 14 strains isolated (r17)
[23] = Totals, 377 strains isolated (r45)

SMILES	Bactericide Resistance: number of resistant strains [1, 3]	Bactericide Resistance: number of resistant strains [1, 4]	Bactericide Resistance: number of resistant strains [1, 5]	Bactericide Resistance: number of resistant strains [1, 6]	Bactericide Resistance: number of resistant strains [1, 7]	Bactericide Resistance: number of resistant strains [1, 8]	Bactericide Resistance: number of resistant strains [1, 9]	Bactericide Resistance: number of resistant strains [1, 10]	Bactericide Resistance: number of resistant strains [1, 11]	Bactericide Resistance: number of resistant strains [1, 12]	Bactericide Resistance: number of resistant strains [1, 13]	Bactericide Resistance: number of resistant strains [1, 14]	Bactericide Resistance: number of resistant strains [1, 15]	Bactericide Resistance: number of resistant strains [1, 16]	Bactericide Resistance: number of resistant strains [1, 17]	Bactericide Resistance: number of resistant strains [1, 18]	Bactericide Resistance: number of resistant strains [1, 19]	Bactericide Resistance: number of resistant strains [1, 20]	Bactericide Resistance: number of resistant strains [1, 21]	Bactericide Resistance: number of resistant strains [1, 22]	also measured
[H]/N=C(/N)N[C@H]1[C@H](O)[C@@H](O)[C@H](O[C@@H]2O[C@@H](C)[C@](O)(C=O)[C@H]2O[C@@H]2O[C@@H](CO)[C@H](O)[C@@H](O)[C@@H]2NC)[C@@H](N/C(N)=N\[H])[C@@H]1O [St, streptomycin sulfate]	0	0	0	0	0	0	0	0	0	0	0	0	0	1	0	0	0	19	0	0	Bactericide Resistance: number of resistant strains [1, 23]: 20; Bactericide Resistance: number of resistant strains ([1]; Totals, 377 strains isolated (r45), listed as streptomycin): streptomycin resistant strains were found in two of our survey collection areas
O.O.O.O.O.O=S(=O)([O-])[O-].[Cu+2] [Cu, copper sulfate (pentahydrate)]	20	14	20	19	20	19	20	20	19	20	20	20	20	20	20	13	15	20	20	14	Bactericide Resistance: number of resistant strains [1, 23]: 377; Bactericide Resistance: number of resistant strains ([1]; Totals, 377 strains isolated (r45), listed as copper): all current field strains were found to be resistant
[Cu+2].[OH-].[OH-] [Copper hydroxide]																					Significant difference between treatment and untreated control: Foliar Rating ([2]; 2008, TN, Ref [3]): No; Significant difference between treatment and untreated control: Marketable Yield ([2]; 2008, TN, Ref [3]): No; Significant difference between treatment and untreated control: AUDPC ([2]; 2009, OH, Ref [4]): No; Significant difference between treatment and untreated control: Marketable Yield ([2]; 2009, OH, Ref [4]): No; Significant difference between treatment and untreated control: Foliar Rating ([2]; 2009, OH, Ref [4], foliar symptoms lower on copper treated plots, fruit symptoms not): Yes^f; Significant difference between treatment and untreated control: AUDPC ([2]; 2010, FL, Ref [6]): Yes^h; Significant difference between treatment and untreated control: Foliar Rating ([2]; 2010, FL, Ref [6]): No^h; Significant difference between treatment and untreated control: Marketable Yield ([2]; 2010, FL, Ref [6]): No
